This experiment addresses human full-length MKNK1 (Homo sapiens (Human), UniProt Q9BUB5, T344D). Kind of experiment: MKNK1 kinase high ATP assay (TR-FRET). It counts as biochemical. To be noted: 2 mM ATP, 15 min preincubation with enzyme, GST-MKNK1 (T344D). A digest of the protocol: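 GST-tagged full-length human MKNK1 (1-424, T344D, baculovirus-expressed) preincubated 15 min at 22 °C with compound, then reacted 30 min at 22 °C with 2 mM ATP and 0.06 μM biotinylated peptide (final) in HEPES pH 7.5. Phospho-substrate by TR-FRET (665/622 nm ratio), normalised to no-inhibitor and no-enzyme controls.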
A general note: In TR-FRET formats the signal depends on donor and acceptor labels being close together.

What is called IC50 is the concentration that inhibits the measured activity by half.

Chain of human full-length MKNK1 (Q9BUB5 other isoform, or with tags, fused parts or gaps T344D): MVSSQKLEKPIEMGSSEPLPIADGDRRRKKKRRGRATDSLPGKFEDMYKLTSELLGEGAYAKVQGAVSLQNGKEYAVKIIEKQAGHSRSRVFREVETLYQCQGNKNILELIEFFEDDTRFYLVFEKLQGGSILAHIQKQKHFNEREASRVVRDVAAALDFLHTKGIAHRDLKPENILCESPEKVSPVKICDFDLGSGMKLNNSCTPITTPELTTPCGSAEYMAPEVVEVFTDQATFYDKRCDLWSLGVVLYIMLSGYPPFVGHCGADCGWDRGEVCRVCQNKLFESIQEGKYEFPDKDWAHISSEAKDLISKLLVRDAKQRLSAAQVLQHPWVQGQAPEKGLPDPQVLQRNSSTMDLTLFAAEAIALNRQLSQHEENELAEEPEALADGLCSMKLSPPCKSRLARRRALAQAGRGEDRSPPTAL

With `COc1cc2ncnc(Nc3cc(C)c4n(c3=O)C3(CCCCC3)NC4=O)c2cc1OC` [Example 119, 6′-[(6,7-Dimethoxyquinazolin-4-yl)amino]-8′-methyl-2′H-spiro[cyclohexane-1,3′-imidazo[1,5-a]pyridine]-1′,5′-dione], the IC50 amounted to 3 nM.

As to `Cc1cc(Nc2ncnc3sc(C(=O)N4CC(C#N)C4)cc23)c(=O)n2c1C(=O)NC21CCCCC1` [Example 26, 1-({4-[(8′-Methyl-1′,5′-dioxo-1′,5′-dihydro-2′H-spiro[cyclohexane-1,3′-imidazo[1,5-a]pyridin]-6′-yl)amino]thieno[2,3-d]pyrimidin-6-yl}carbonyl)azetidine-3-carbonitrile], half-maximal inhibition (IC50) was put at 5 nM.

`Cc1cc(Nc2ncnc3sc(C(=O)N4CC(C#N)C4)cc23)c(=O)n2c1C(=O)NC21CCC1` [Example 155, 1-({4-[(8′-Methyl-1′,5′-dioxo-1′,5′-dihydro-2′H-spiro[cyclobutane-1,3′-imidazo[1,5-a]pyridin]-6′-yl)amino]thieno[2,3-d]pyrimidin-6-yl}carbonyl)azetidine-3-carbonitrile] registered a concentration for half-maximal inhibition (IC50) of 5.3 nM.

Molecule `Cc1cc(Nc2ncnc3scnc23)c(=O)n2c1C(=O)NC21CCCCC1` [Example 51, 8′-Methyl-6′-([1,3]thiazolo[5,4-d]pyrimidin-7-ylamino)-2′H-spiro[cyclohexane-1,3′-imidazo[1,5-a]pyridine]-1′,5′-dione] returned an IC50 of 2.9 nM.

`Cc1cc(Nc2ncnc3ccc(F)cc23)c(=O)n2c1C(=O)NC21CCC1` [Example 171, 6′-[(6-fluoroquinazolin-4-yl)amino]-8′-methyl-2′H-spiro[cyclobutane-1,3′-imidazo[1,5-a]pyridine]-1′,5′-dione] returned an IC50 of 6 nM.

As for `Cc1cc(Nc2ncnc3sc(C(=O)N4CC[C@@H](N(C)C)C4)cc23)c(=O)n2c1C(=O)NC2(C)C` [Example 142, 6-[(6-{[(3R)-3-(Dimethylamino)pyrrolidin-1-yl]carbonyl}thieno[2,3-d]pyrimidin-4-yl)amino]-3,3,8-trimethyl-2,3-dihydroimidazo[1,5-a]pyridine-1,5-dione], the midpoint of inhibition, the IC50, lay at 20 nM.

The molecule `Cc1cc(Nc2ncnc3sccc23)c(=O)n2c1C(=O)NC2(C)C` [Example 135, 3,3,8-Trimethyl-6-(thieno[2,3-d]pyrimidin-4-ylamino)-2,3-dihydroimidazo[1,5-a]pyridine-1,5-dione] returned an IC50 of 19.8 nM.

Turning to `Cc1cc(Nc2ncnc3c2CNC3)c(=O)n2c1C(=O)NC21CCC(F)(F)CC1` [Example 125, 6′-(6,7-Dihydro-5H-pyrrolo[3,4-d]pyrimidin-4-ylamino)-4,4-difluoro-8′-methyl-2′H-spiro[cyclohexane-1,3′-imidazo[1,5-a]pyridine]-1′,5′-dione], it took 46.5 nM to reach half-maximal inhibition (IC50).

`Cc1cc(Nc2ncnc3[nH]ncc23)c(=O)n2c1C(=O)NC21CCC1` [Example 160, 8′-Methyl-6′-(1H-pyrazolo[3,4-d]pyrimidin-4-ylamino)-2′H-spiro[cyclobutane-1,3′-imidazo[1,5-a]pyridine]-1′,5′-dione] came in with a 50% inhibitory concentration (IC50) of 2.9 nM.

The molecule `Cc1cc(Nc2ncnc3ccc(Cl)cc23)c(=O)n2c1C(=O)N[C@]21CC[C@@](O)(C(F)(F)C(F)(F)F)CC1` [Example 195, (cis)-6′-[(6-chloroquinazolin-4-yl)amino]-4-hydroxy-8′-methyl-4-(pentafluoroethyl)-2′H-spiro[cyclohexane-1,3′-imidazo[1,5-a]pyridine]-1′,5′-dione] displayed an IC50 of 342 nM.

`Cc1cc(Nc2ncnc3sc(C(=O)N4C[C@H]5C[C@@H]4CN5C)cc23)c(=O)n2c1C(=O)NC21CCCCC1` [Example 42, 8′-Methyl-6′-[(6-{[(1R,4R)-5-methyl-2,5-diazabicyclo[2.2.1]hept-2-yl]carbonyl}thieno[2,3-d]pyrimidin-4-yl)amino]-2′H-spiro[cyclohexane-1,3′-imidazo[1,5-a]pyridine]-1′,5′-dione] had a half-inhibitory concentration (IC50) of 1.9 nM.

The molecule `Cc1cc(Nc2ncnc3scnc23)c(=O)n2c1C(=O)NC21CCCC1` [Example 100, 8′-Methyl-6′-([1,3]thiazolo[5,4-d]pyrimidin-7-ylamino)-2′H-spiro[cyclopentane-1,3′-imidazo[1,5-a]pyridine]-1′,5′-dione] displayed an IC50 of 70.5 nM.

Take `Cc1cc(Nc2ncnc(NC(=O)C3CC3)n2)c(=O)n2c1C(=O)NC21CCCCC1` [Example 1, N-{4-[(8′-Methyl-1′,5′-dioxo-1′,5′-dihydro-2′H-spiro[cyclohexane-1,3′-imidazo[1,5-a]pyridin]-6′-yl)amino]-1,3,5-triazin-2-yl}cyclopropanecarboxamide]: half-maximal inhibition (IC50) required 2.5 nM.

In turn, `Cc1cc(Nc2ncnc3c(C)cccc23)c(=O)n2c1C(=O)NC21CCCCC1` [Example 120, 8′-methyl-6′-[(8-methylquinazolin-4-yl)amino]-2′H-spiro[cyclohexane-1,3′-imidazo[1,5-a]pyridine]-1′,5′-dione] had an IC50 of over 20000 nM.

Take `Cc1cc(Nc2ncnc3sc(C(=O)N4CCC(N(C)C)CC4)cc23)c(=O)n2c1C(=O)NC21CCCC1` [Example 64, 6′-[(6-{[4-(Dimethylamino)piperidin-1-yl]carbonyl}thieno[2,3-d]pyrimidin-4-yl)amino]-8′-methyl-2′H-spiro[cyclopentane-1,3′-imidazo[1,5-a]pyridine]-1′,5′-dione]: the IC50 stood at 5.5 nM.

Regarding `Cc1cc(Nc2ncnc3sc(C(=O)O)c(C)c23)c(=O)n2c1C(=O)NC21CCCC1` [Example 95, 5-Methyl-4-[(8′-methyl-1′,5′-dioxo-1′,5′-dihydro-2′H-spiro[cyclopentane-1,3′-imidazo[1,5-a]pyridin]-6′-yl)amino]thieno[2,3-d]pyrimidine-6-carboxylic acid], the IC50 worked out at 5.8 nM.

Regarding `CCCNC(=O)Nc1nccc(Nc2cc(C)c3n(c2=O)C2(CCCCC2)NC3=O)n1` [Example 23, 1-{4-[(8′-Methyl-1′,5′-dioxo-1′,5′-dihydro-2′H-spiro[cyclohexane-1,3′-imidazo[1,5-a]pyridin]-6′-yl)amino]pyrimidin-2-yl}-3-propylurea], inhibition was half-maximal at 337 nM (IC50).

In the case of `Cc1cc(Nc2ncnc3sc(C(=O)N4C[C@H]5C[C@@H]4CO5)cc23)c(=O)n2c1C(=O)NC21CCCCC1` [Example 65, 8′-Methyl-6′-({6-[(1R,4R)-2-oxa-5-azabicyclo[2.2.1]hept-5-ylcarbonyl]thieno[2,3-d]pyrimidin-4-yl}amino)-2′H-spiro[cyclohexane-1,3′-imidazo[1,5-a]pyridine]-1′,5′-dione], the half-maximal inhibitory concentration (IC50) was 5.9 nM.

`Cc1cc(Nc2ncnc3sc(C(=O)N4CC(C#N)C4)cc23)c(=O)n2c1C(=O)NC2(C)C` [Example 141, 1-({4-[(3,3,8-Trimethyl-1,5-dioxo-1,2,3,5-tetrahydroimidazo[1,5-a]pyridin-6-yl)amino]thieno[2,3-d]pyrimidin-6-yl}carbonyl)azetidine-3-carbonitrile] came in with a half-maximal inhibitory concentration (IC50) of 24.2 nM.

`Cc1cc(Nc2ncnc3[nH]ncc23)c(=O)n2c1C(=O)NC21CCC(F)(F)CC1` [Example 105, 4,4-Difluoro-8′-methyl-6′-(1H-pyrazolo[3,4-d]pyrimidin-4-ylamino)-2′H-spiro[cyclohexane-1,3′-imidazo[1,5-a]pyridine]-1′,5′-dione] showed a 50% inhibitory concentration (IC50) of 8.3 nM.

For `Cc1cc(Nc2ncnc3sccc23)c(=O)n2c1C(=O)NC21CCC(F)(F)CC1` [Example 89, 4,4-Difluoro-8′-methyl-6′-(thieno[2,3-d]pyrimidin-4-ylamino)-2′H-spiro[cyclohexane-1,3′-imidazo[1,5-a]pyridine]-1′,5′-dione], the 50% inhibitory concentration (IC50) was found to be 12.8 nM.

`Cc1cc(Nc2ncnc3sc(C(N)=O)cc23)c(=O)n2c1C(=O)NC21CCCCC1` [Example 97, 4-[(8′-Methyl-1′,5′-dioxo-1′,5′-dihydro-2′H-spiro[cyclohexane-1,3′-imidazo[1,5-a]pyridin]-6′-yl)amino]thieno[2,3-d]pyrimidine-6-carboxamide] returned a 50% inhibitory concentration (IC50) of 5.1 nM.

For the molecule `Cc1cc(Nc2ncnc3sc(C(=O)N(C)CCN(C)C)c(C)c23)c(=O)n2c1C(=O)NC21CCCCC1` [Example 17, N-[2-(dimethylamino)ethyl]-N,5-dimethyl-4-[(8′-methyl-1′,5′-dioxo-1′,5′-dihydro-2′H-spiro[cyclohexane-1,3′-imidazo[1,5-a]pyridin]-6′-yl)amino]thieno[2,3-d]pyrimidine-6-carboxamide], half-maximal inhibition (IC50) required 40.3 nM.

The molecule `Cc1cc(Nc2ncnc3ccccc23)c(=O)n2c1C(=O)NC21CCCCC1` [Example 8, 8′-Methyl-6′-(quinazolin-4-ylamino)-2′H-spiro[cyclohexane-1,3′-imidazo[1,5-a]pyridine]-1′,5′-dione] showed a half-inhibitory concentration (IC50) of 28.3 nM.

In the case of `Cc1cc(Nc2ncnc3c2CN(S(=O)(=O)CC(F)(F)F)C3)c(=O)n2c1C(=O)NC21CCCCC1` [Example 73, 8′-methyl-6′-({6-[(2,2,2-trifluoroethyl)sulfonyl]-6,7-dihydro-5H-pyrrolo[3,4-d]pyrimidin-4-yl}amino)-2′H-spiro[cyclohexane-1,3′-imidazo[1,5-a]pyridine]-1′,5′-dione], the IC50 is 168 nM.

In the case of `Cc1cc(Nc2ncnc3sc(C(=O)N4C[C@H]5C[C@@H]4CO5)cc23)c(=O)n2c1C(=O)NC2(C)C` [Example 144, 3,3,8-Trimethyl-6-({6-[(1R,4R)-2-oxa-5-azabicyclo[2.2.1]hept-5-ylcarbonyl]thieno[2,3-d]pyrimidin-4-yl}amino)-2,3-dihydroimidazo[1,5-a]pyridine-1,5-dione], the midpoint of inhibition, the IC50, lay at 12.9 nM.

As for `Cc1cc(Nc2ncnc3ccc(F)cc23)c(=O)n2c1C(=O)NC21CCCC1` [Example 185, 6′-[(6-fluoroquinazolin-4-yl)amino]-8′-methyl-2′H-spiro[cyclopentane-1,3′-imidazo[1,5-a]pyridine]-1′,5′-dione], the IC50 was 7.9 nM.

Molecule `Cc1cc(Nc2ncnc3sc(C(=O)O)c(C)c23)c(=O)n2c1C(=O)NC21CCC(F)(F)CC1` [Example 93, 4-[(4,4-Difluoro-8′-methyl-1′,5′-dioxo-1′,5′-dihydro-2′H-spiro[cyclohexane-1,3′-imidazo[1,5-a]pyridin]-6′-yl)amino]-5-methylthieno[2,3-d]pyrimidine-6-carboxylic acid] registered an IC50 of 42 nM.

These data come from patent US11311520B2, “Substituted dihydroimidazopyridinediones as MKNK1 and MKNK2 inhibitors” (Bayer Pharma Aktiengesellschaft, priority 2017, dated 2022).
